# Measurements from patent publication US6242564A (priority 1992, dated 2001).
# Assays:
# HTLV-III virus (HIV) = assay: Blockade of viral infection of human T cells (reverse transcriptase activity); type: cell-based; conditions: for Rank order of potencies in inhibiting receptor binding and viral infectivity: FIGS. 2c, 3
# Procedure: The treated cells were then panned on a plastic Petri dish that was coated with goat [F(ab')2 ] anti-mouse immunoglobulin (Sero Lab, Eastbury, Mass.) for 20 min at 4° C. The nonadherent cells were then removed, washed, and analyzed for reactivity by flow cytometry. […] Cells were then cultured with phytohemagglutinin (1 μg/ml) for 72 hrs and exposed to HIV as described below. Infected cells were phenotypically characterized when cytotoxicity assays were performed.
# The HTLV-III virus used for infection was isolated from an interleukin 2 (IL-2)-dependent cultured T-cell line established from fresh AIDS patient material and passaged into HuT 78, permissive IL-2-independent cell line.
# Each determination was performed in duplicate.
# [1] = tested on: T4 antigen (gp 120 receptor) on rat hippocampal membranes; assay: Displacement of specific 125I-gp 120 binding to fresh rat hippocampal (brain) membranes
# Procedure: ETLV-IIIb isolate of HIV was propaged in H9 cells, and the gp 120 was isolated by immunoaffinity chromatography and preparative NaDodSO4 /PAGE. Purified gp 120 was labeled with 125 by the chloramine-T method.
# Fresh human, monkey, and rat hippocampus were quickly homogenized (POLYTRON, Brinkmann Instruments) in 100 vol. of ice-cold 50 mM Hepes (pH 7.4). The membranes collected by centrifugation (15,000×g) were washed in the original buffer volume and were used fresh or stored at -70° C. Before use, brain membranes and highly purified T cells were preincubated for 15-30 min in phosphate-buffered saline (PBS). Preincubated membranes derived from 2 mg (initial we weight) of brain (α100 μg of protein) were incubated with 28,000 cpm of 125I -gp 120 for 1 hour at 37° C. in 200 μl (final volume) of 50 mM Hepes containing 0.1% bovine serum albumin and the peptidase inhibitors bacitracin (0.005%), aprotinin (0.005%), leupeptin (0.001%), and chymostatin (0.001%). Incubations were rapidly vacuum-filtered and counted to determine the receptor-bound material.
# Each determination was performed in triplicate; the results of one experiment, which was performed three times with similar results, is shown. Specific binding (FIG. 2b) displaceable by 10 μg/ml of OKT4 and 4A ranged between 27 and 85% of total binding, which was 2,201±74 cpm in the experiment shown.
# HIV = conditions: in vitro; cited from earlier work
# gp 120 = conditions: in vitro; cited from earlier work
# [2] = molecular target: HIV viral receptors, such as T4 (Homo sapiens, UniProt P01730); assay: General statements of receptor binding / activity, test not specified
molecule,measurement,setting,value
C[C@H](N)C(=O)N[C@@H](CO)C(=O)N[C@H](C(=O)N[C@H](C(=O)N[C@H](C(=O)N[C@@H](CC(N)=O)C(=O)N[C@@H](Cc1ccc(O)cc1)C(=O)N[C@@H](C(N)=O)[C@H](C)O)[C@@H](C)O)[C@@H](C)O)[C@@H](C)O [D-[Thr]8-peptide T-amide],Rank order of potencies in inhibiting receptor binding and viral infectivity,HTLV-III virus (HIV),D-[Ala]1 -peptide T-amide>D-[Ala]1 -peptide T>peptide T>D-[Thr]8 -peptide T-amide
same,"Concentration required for significant inhibition of viral infection, relative to the active peptides",HTLV-III virus (HIV); human T cells,100 fold
same,Blockade of viral infectivity (in words),"HTLV-III virus (HIV); human T cells, FIG. 3",greatly reduced blockade of viral infection
same,Loss of receptor binding activity versus peptide T,[1],≥ 100 fold
VIP: Vasoactive Intestinal Peptide,HIV replication in cell culture,HIV,inhibit
same,Binding of gp 120 to brain tissue,gp 120,inhibit
"CYS-THR-THR-ASN-TYR-THR-CYS (CTTNYTC; printed: CYS-THR-THR-ASN-TYR-THR-CYS) [seven amino acid peptide, core with added cysteines]",Activity (test not specified),[2],also active
C[C@@H](N)C(=O)N[C@@H](CO)C(=O)N[C@H](C(=O)N[C@H](C(=O)N[C@H](C(=O)N[C@@H](CC(N)=O)C(=O)N[C@@H](Cc1ccc(O)cc1)C(=O)N[C@H](C(N)=O)[C@@H](C)O)[C@@H](C)O)[C@@H](C)O)[C@@H](C)O [D-[Ala]1-peptide T-amide],Rank order of potencies in inhibiting receptor binding and viral infectivity,HTLV-III virus (HIV),D-[Ala]1 -peptide T-amide>D-[Ala]1 -peptide T>peptide T>D-[Thr]8 -peptide T-amide
